In patent EP4076478B1, “COMPOSITION AND METHOD FOR THE TREATMENT OF TYPE I DIABETES” (Vector Vitale IP LLC, priority 2019, dated 2021):

Assay: Accumulation of metals in liver and kidney tissues after intraperitoneal administration
Format: in vivo, rats
Conditions: day 1 and day 7 after discontinuation of the substances

In the case of `CC(=O)[O-].CC(=O)[O-].[Zn+2]` [Zn acetate, Zn(CH3COO)2], the “zinc in the kidney and liver tissues” value is reported as “significantly increased”.
